Measured values: patent US9546141B2, “Salts” (Sprout Pharmaceuticals, Inc., priority 2008, dated 2017)

Tests used:
[1] = Solubility of the crystalline salt forms in water; assay type: physicochemical; details: shaken 2 hours, filtered, UV-spectroscopy
Procedure: Solubility of the different crystalline salt forms in water was determined by adding […] of compound into 5 ml of water at room temperature. The mixture was vigorously shaken for 2 hours at room temperature. Afterwards the undissolved solid was removed by filtering through a 0.45 μm PTFE filter, in the filtrate the dissolved amount of compound was determined by UV-spectroscopy.

[2] = Hygroscopicity (IGAsorp water sorption monitor); assay type: physicochemical; details: room temperature
Procedure: IGAsorp water sorption monitor from Hiden Isochema was used for the analysis of the hygroscopical behaviour at room temperature. • humidity profile: from 10-90% r.h. in steps of 10%, sorption as well as desorption profiles were registered • weight-in quantity: 10-20 mg

SMILES	solubility in water at room temperature [1] [µg/mL]	hygroscopicity expressed in the uptake of water in the range of 10-90% relative humidity [2] [%]
CC1(C)C2CCC1(CS(=O)(=O)O)C(=O)C2.O=c1[nH]c2ccccc2n1CCN1CCN(c2cccc(C(F)(F)F)c2)CC1 [XXXII, 1-[2-(4-(3-trifluoro-methyl-phenyl)piperazin-1-yl)ethyl]-2,3-dihydro-1H-benzimidazol-2-one camphorsulfonate]	700	0.13
O=S(=O)(O)c1ccccc1.O=c1[nH]c2ccccc2n1CCN1CCN(c2cccc(C(F)(F)F)c2)CC1 [VIII, 1-[2-(4-(3-trifluoro-methyl-phenyl)piperazin-1-yl)ethyl]-2,3-dihydro-1H-benzimidazol-2-one besylate]	100	0.15
O=C1NS(=O)(=O)c2ccccc21.O=c1[nH]c2ccccc2n1CCN1CCN(c2cccc(C(F)(F)F)c2)CC1 [XI, 1-[2-(4-(3-trifluoro-methyl-phenyl)piperazin-1-yl)ethyl]-2,3-dihydro-1H-benzimidazol-2-one sacharinate]	300	0.24
Cc1ccc(S(=O)(=O)O)cc1.O=c1[nH]c2ccccc2n1CCN1CCN(c2cccc(C(F)(F)F)c2)CC1 [XXX, 1-[2-(4-(3-trifluoro-methyl-phenyl)piperazin-1-yl)ethyl]-2,3-dihydro-1H-benzimidazol-2-one tosylate]	90	0.25

Continued, values first:

solubility in water at room temperature [1] [µg/mL]	hygroscopicity expressed in the uptake of water in the range of 10-90% relative humidity [2] [%]	SMILES
1300	0.32	CCS(=O)(=O)O.O=c1[nH]c2ccccc2n1CCN1CCN(c2cccc(C(F)(F)F)c2)CC1 [XV, 1-[2-(4-(3-trifluoro-methyl-phenyl)piperazin-1-yl)ethyl]-2,3-dihydro-1H-benzimidazol-2-one ethansulfonate]
1700	0.7	O=C(O)C(=O)O.O=c1[nH]c2ccccc2n1CCN1CCN(c2cccc(C(F)(F)F)c2)CC1 [IX, 1-[2-(4-(3-trifluoro-methyl-phenyl)piperazin-1-yl)ethyl]-2,3-dihydro-1H-benzimidazol-2-one oxalate]
500	0.20	O=C(O)CO.O=c1[nH]c2ccccc2n1CCN1CCN(c2cccc(C(F)(F)F)c2)CC1 [XXXIII, 1-[2-(4-(3-trifluoro-methyl-phenyl)piperazin-1-yl)ethyl]-2,3-dihydro-1H-benzimidazol-2-one glycolate]
1100	3.4	CS(=O)(=O)O.O=c1[nH]c2ccccc2n1CCN1CCN(c2cccc(C(F)(F)F)c2)CC1 [VII, 1-[2-(4-(3-trifluoro-methyl-phenyl)piperazin-1-yl)ethyl]-2,3-dihydro-1H-benzimidazol-2-one mesylate]
500	0.28	O=C(O)/C=C/C(=O)O.O=c1[nH]c2ccccc2n1CCN1CCN(c2cccc(C(F)(F)F)c2)CC1 [XXXI, 1-[2-(4-(3-trifluoro-methyl-phenyl)piperazin-1-yl)ethyl]-2,3-dihydro-1H-benzimidazol-2-one fumarate]
